According to publication PMC8864165, “Functional Effects of ARV-1502 Analogs Against Bacterial Hsp70 and Implications for Antimicrobial Activity” (Frontiers in Chemistry, 2022):
≈ marks a conversion by molar mass, not a printed value. Square brackets hold non-standard residues; d marks the D form. Peptide text beside a SMILES is read from it. * marks the point of attachment. 5FAM = O=C1OC2(c3ccc(O)cc3Oc3cc(O)ccc32)c2ccc(C(=O)*)cc21; Ac6c = NC1(C(=O)O)CCCCC1

Legend:
[1] = molecular target: T1, E. coli DnaK/DnaJ/GrpE (Escherichia coli, UniProt P0A6Y8); test: Fluorescence polarization Kd with Cf-labeled peptide, full chaperone system; type: binding; conditions: ratio of Kd
T1 construct: made in house; host or cells: E. coli (DE3) Rosetta pLysS
Procedure: (§3) Dissociation (Kd) and inhibitory constants (Ki) were measured using a previously reported protocol with slight modifications ([Krizsan et al., 2015]; [Kolano et al., 2020]). Briefly, black 384-well plates (flat bottom, Greiner Bio-One GmbH, Frickenhausen, Germany) were blocked with 0.5% (w/v) casein in phosphate buffered saline (PBS; 10 mmol/L Na2HPO4, 0.2 mmol/L KH2PO4, 137 mmol/L NaCl, 2.7 mmol/L KCl, pH 7.4) containing 0.05% (w/v) Tween® 20 (PBST) at 4°C overnight and washed three times with PBST. […] The 5 (6)-carboxyfluorescein-labeled peptide was added (20 μL/well, 40 nmol/L), incubated (2 h, 28°C, dark), and the fluorescence polarization recorded at an excitation wavelength (λ ex) of 485 nm and an emission wavelength (λem) of 535 nm using a […] ™ microplate reader (Beckman Coulter, Krefeld, Germany). Ki values were determined using a twofold dilution series of unlabeled peptide (20 µL/well) and DnaK (10 µL/well). The plate was incubated at 28°C in the dark for 90 min before the Cf-labeled peptides were added (10 µL/well, 80 nmol/L). After a second incubation (90 min, 28°C), the fluorescence polarization was recorded (λ ex = 485 nm, λ em = 535 nm). Dissociation and inhibitory constants were calculated by fitting the data with a variable slope parameter [y = min + (max- min)/(1+(x/Kd) ^−Hill slope)] using SigmaPlot 13 (Systat Software Inc., San Jose, CA, United States).

[2] = molecular target: S. aureus DnaJ (Staphylococcus aureus, UniProt P63971); test: Fluorescence polarization Kd with Cf-labeled peptide; conditions: FP, * = upper plateau not reached, Kd only approximate
Procedure: as §3

[3] = molecular target: E. coli GrpE (Escherichia coli, UniProt P09372); test: as above; conditions: E. coli proteins, ratio of Kd
Procedure: as §3

[4] = molecular target: E. coli DnaJ (Escherichia coli, UniProt P08622); test: as above; conditions: E. coli proteins, ratio of Kd
Procedure: as §3

[5] = molecular target: T2, S. aureus DnaK (Staphylococcus aureus, UniProt P99110); test: as above; type: binding
T2 construct: His6-tag with TEV site ([…]) (N, cleaved yes); made in house; host or cells: E. coli (DE3) Rosetta pLysS
Procedure: as §3

[6] = test system: E. coli JW0013 ∆dnaK; conditions: 25% MHB2, 37°C, 20 h
[7] = molecular target: T2, S. aureus DnaK; test: FP peptide binding screening against Cf-ARV-1502; conditions: screening: DnaK 16 µmol/L, unlabeled peptide 35 µmol/L, duplicate, below 1 = better than ARV-1502
[8] = molecular target: T3, E. coli DnaK (Escherichia coli, UniProt P0A6Y8); type: binding
T3 construct: His6-tag with TEV site ([…]) (N, cleaved yes); made in house; host or cells: E. coli (DE3) Rosetta pLysS
Procedure: The plate was incubated (90 min, 28°C, dark) and Cf-ARV-1502 (80 nmol/L; 10 µL/well) added. […] Each peptide was screened in duplicate. Control samples either lacked the unlabeled peptide (maximum) or contained Cf-ARV-1502 in buffer (minimum).
The quality of the experimental set up was evaluated by the Z′ factor ([Zhang et al., 1999]) (Supplementary Table S2). […] The obtained FP-values were normalized to the FP-values determined for lead sequence ARV-1502.

[9] = test system: E. coli BW25113; conditions: 25% MHB2, 7.5 × 10^6 cfu/mL, 37°C, 20 h
Procedure: Minimal inhibitory concentrations (MICs) were determined using a liquid broth micro dilution assay in sterile 96-well plates (polystyrene F-bottom, Greiner Bio-One GmbH) and a total volume of 100 μL per well. […] Overnight cultures of bacteria, i.e., E. coli BW25113 or S. aureus DSM 6247, grown in 25% MHB2 were diluted 30-fold in 25% MHB2. After an incubation period of 4 h (37°C, 200 rpm), cells were diluted to 1.5 × 10^7 cfu/mL, based on a McFarland test, and 50 μL were added to each well (final concentration of 7.5 × 10^6 cfu/mL per well). The plates were incubated (37°C, 20 h) and the optical density was determined at 595 nm using the […]™ microplate reader. The MIC was defined as the lowest peptide concentration preventing visible bacterial growth.

[10] = molecular target: T3, E. coli DnaK; test: ATPase activity assay (malachite green), DnaK alone; type: biochemical; conditions: ARV-1502 concentration series, plateau
Procedure: (§1) ATPase activity of E. coli and S. aureus chaperones was studied in the presence of an AMP using a 384-well plate colorimetric assay ([Chang et al., 2008]; [Zahn et al., 2013]). […] Each sample was prepared in triplicates on the same plate. The reaction was started by addition of ATP dissolved in assay buffer (5 µL, 4 mmol/L) and the plate centrifuged (500 × g, 2 min; Allegra™ 21R, Beckmann Coulter, Krefeld, Germany) before incubated (37°C, 2 h). The released phosphate was quantified using an external phosphate dilution series (10–200 µmol/L KH2PO4 in assay buffer) prepared on each plate and treated equally as the samples. The reaction was stopped by adding assay buffer (80 µL) to all samples except the phosphate dilution series. […] After 15 min, the absorbance was recorded at 620 nm on the […]™ microplate reader. […]
(§2) The impact of ARV-1502 and its analogs on the ATPase activity of DnaK was investigated in 384-well plates using the malachite green absorbance assay, which quantitates phosphate (Pi) cleaved from ATP confirming for example the ATPase activity of DnaK. The established assay allowed a robust and reproducible quantitation of phosphate from 10 to 150 µmol/L and was easy to handle (Supplementary Figure S3) providing the intended high-throughput screening. […]

[11] = molecular target: T2, S. aureus DnaK; test: as above; type: biochemical; conditions: ARV-1502 concentration series, plateau
Procedure: as §1, §2

T2 sequence (P99110 whole entry): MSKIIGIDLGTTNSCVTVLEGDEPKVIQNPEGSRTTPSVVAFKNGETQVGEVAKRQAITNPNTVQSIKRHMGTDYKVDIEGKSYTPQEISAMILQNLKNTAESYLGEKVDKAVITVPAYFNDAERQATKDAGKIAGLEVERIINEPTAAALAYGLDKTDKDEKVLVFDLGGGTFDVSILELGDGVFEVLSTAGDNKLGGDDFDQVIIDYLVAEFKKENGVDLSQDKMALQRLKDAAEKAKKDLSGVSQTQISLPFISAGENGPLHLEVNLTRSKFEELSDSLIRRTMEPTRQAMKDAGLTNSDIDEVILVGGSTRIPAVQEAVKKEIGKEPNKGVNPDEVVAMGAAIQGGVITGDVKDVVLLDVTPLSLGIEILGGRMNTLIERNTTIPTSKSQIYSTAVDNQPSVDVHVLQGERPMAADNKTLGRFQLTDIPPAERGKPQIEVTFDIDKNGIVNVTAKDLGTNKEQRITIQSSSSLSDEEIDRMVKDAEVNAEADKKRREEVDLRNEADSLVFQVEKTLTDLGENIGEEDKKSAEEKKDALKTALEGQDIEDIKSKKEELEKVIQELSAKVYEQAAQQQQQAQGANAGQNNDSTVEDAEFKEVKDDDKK
T3 sequence (P0A6Y8 whole entry): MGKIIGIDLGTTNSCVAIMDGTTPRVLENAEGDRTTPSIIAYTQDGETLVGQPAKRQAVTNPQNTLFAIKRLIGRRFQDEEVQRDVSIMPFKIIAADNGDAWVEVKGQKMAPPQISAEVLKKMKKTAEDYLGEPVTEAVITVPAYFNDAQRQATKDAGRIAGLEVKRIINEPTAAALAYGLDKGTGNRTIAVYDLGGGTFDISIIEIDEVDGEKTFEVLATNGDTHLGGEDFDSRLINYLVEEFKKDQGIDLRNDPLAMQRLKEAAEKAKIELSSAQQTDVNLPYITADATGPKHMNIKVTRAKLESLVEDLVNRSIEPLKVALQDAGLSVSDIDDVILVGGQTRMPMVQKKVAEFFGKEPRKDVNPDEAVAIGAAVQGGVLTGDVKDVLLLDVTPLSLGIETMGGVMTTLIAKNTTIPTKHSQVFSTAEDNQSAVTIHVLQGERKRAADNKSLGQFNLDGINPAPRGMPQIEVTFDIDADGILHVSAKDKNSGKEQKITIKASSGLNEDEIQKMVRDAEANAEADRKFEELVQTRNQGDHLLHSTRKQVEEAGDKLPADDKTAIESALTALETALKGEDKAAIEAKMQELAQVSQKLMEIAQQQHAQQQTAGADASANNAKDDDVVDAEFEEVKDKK
S. aureus DnaJ, sequence (P63971 whole entry): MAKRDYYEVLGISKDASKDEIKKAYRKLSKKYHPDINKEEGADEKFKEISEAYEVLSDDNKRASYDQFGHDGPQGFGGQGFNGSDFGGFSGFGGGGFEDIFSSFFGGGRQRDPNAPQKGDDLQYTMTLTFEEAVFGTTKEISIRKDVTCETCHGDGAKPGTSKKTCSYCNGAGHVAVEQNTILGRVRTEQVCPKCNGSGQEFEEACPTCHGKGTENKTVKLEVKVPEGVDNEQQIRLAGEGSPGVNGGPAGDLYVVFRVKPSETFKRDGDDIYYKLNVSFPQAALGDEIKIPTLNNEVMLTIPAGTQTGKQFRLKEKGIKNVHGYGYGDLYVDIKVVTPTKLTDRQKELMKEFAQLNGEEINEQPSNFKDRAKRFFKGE
E. coli GrpE, sequence (P09372 whole entry): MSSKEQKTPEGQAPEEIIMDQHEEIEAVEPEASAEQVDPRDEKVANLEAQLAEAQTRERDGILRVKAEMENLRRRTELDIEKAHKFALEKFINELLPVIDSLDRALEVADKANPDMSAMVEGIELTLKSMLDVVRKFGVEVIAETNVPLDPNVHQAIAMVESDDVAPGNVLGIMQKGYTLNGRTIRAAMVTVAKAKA
T1 sequence (P0A6Y8 whole entry): as the sequence (P0A6Y8 whole entry) above
E. coli DnaJ, sequence (P08622 whole entry): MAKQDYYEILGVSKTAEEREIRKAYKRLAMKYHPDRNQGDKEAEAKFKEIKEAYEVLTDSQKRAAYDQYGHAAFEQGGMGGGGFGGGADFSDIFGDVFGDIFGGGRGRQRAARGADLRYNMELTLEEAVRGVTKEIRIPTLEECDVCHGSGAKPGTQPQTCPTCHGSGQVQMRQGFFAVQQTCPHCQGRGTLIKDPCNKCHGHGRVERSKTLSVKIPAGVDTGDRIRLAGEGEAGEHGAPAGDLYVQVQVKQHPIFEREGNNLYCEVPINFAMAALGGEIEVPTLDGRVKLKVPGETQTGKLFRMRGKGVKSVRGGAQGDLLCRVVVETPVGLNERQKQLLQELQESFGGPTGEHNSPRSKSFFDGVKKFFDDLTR

How did the “fold higher Kd for E. coli DnaK/DnaJ/GrpE-system than for DnaK alone” value [1] turn out when `CC(C)C[C@H](NC(=O)[C@H](Cc1ccc(O)cc1)NC(=O)[C@@H]1CCCN1C(=O)[C@H](CCCNC(=N)N)NC(=O)[C@@H]1CCCN1C(=O)[C@H](CCCCN)NC(=O)[C@H](CC(=O)O)NC(=O)[C@@H]1CCCN1C(=O)[C@H](CCCNC(=N)N)NC(=O)C1(NC(=O)c2ccc3c(c2)C(=O)OC32c3ccc(O)cc3Oc3cc(O)ccc32)CCCCC1)C(=O)N1CCC[C@H]1C(=O)N[C@@H](CCCNC(=N)N)C(=O)N1CCC[C@H]1C(=O)N[C@@H](CCCNC(=N)N)C(=O)N1CCC[C@H]1C(=O)N1CCC[C@H]1C(=O)N[C@@H](CCCNC(=N)N)C(=O)N1CCC[C@H]1C(=O)N[C@H](C(=O)N[C@@H](CCCNC(=N)N)C(N)=O)C(C)C` [Cf-ARV-1502] (5FAM-[Ac6c]RPDKPRPYLPRPRPPRPVR-NH2) was run?
The value was 15 fold.

And the “Kd, S. aureus DnaJ” value [2]?
Its value is “no fit”.

What about the “fold weaker binding to GrpE than to DnaK” value [3] of the same compound?
Its value is ~1,000 fold.

What about the “fold weaker binding to DnaJ than to DnaK” value [4] of the same compound?
The value was about 150 fold.

What about the “times weaker binding to S. aureus DnaK than to E. coli DnaK” value ([5]; ratio of Kd) of the same compound?
Its value is “around 100 times”.

What does the source list for `CC(C)C[C@H](NC(=O)[C@H](Cc1ccc(O)cc1)NC(=O)[C@@H]1CCCN1C(=O)[C@H](CCCNC(=N)N)NC(=O)[C@@H]1CCCN1C(=O)[C@H](Cc1ccccc1)NC(=O)[C@H](Cc1ccccc1)NC(=O)[C@@H]1CCCN1C(=O)[C@H](CCCNC(=N)N)NC(=O)C1(N)CCCCC1)C(=O)N1CCC[C@H]1C(=O)N[C@@H](CC(C)C)C(=O)N1CCC[C@H]1C(=O)N[C@@H](CCCNC(=N)N)C(=O)N1CCC[C@H]1C(=O)N1CCC[C@H]1C(=O)N[C@@H](CCCNC(=N)N)C(=O)N1CCC[C@H]1C(=O)N[C@H](C(=O)N[C@@H](CCCNC(=N)N)C(N)=O)C(C)C` [peptide 102] (H-[Ac6c]RPFFPRPYLPLPRPPRPVR-NH2)?
MIC, E. coli JW0013 ∆dnaK [6]: 32 µg/mL (≈ 12.9 µM); binding to S. aureus DnaK, FP-value normalized to ARV-1502 [7]: best binders; binding to E. coli DnaK, FP-value normalized to ARV-1502 [8]: best binders; fold lower Kd than lead structure ARV-1502, S. aureus DnaK ([5]; ratio of Kd of Cf-labeled peptides): 20 fold

Which “MIC, E. coli JW0013 ∆dnaK” value [6] does the source give for `CC(C)C[C@H](NC(=O)[C@H](Cc1ccc(O)cc1)NC(=O)[C@@H]1CCCN1C(=O)[C@H](CCCNC(=N)N)NC(=O)[C@@H]1CCCN1C(=O)[C@H](CCCCN)NC(=O)[C@H](CCCCN)NC(=O)[C@@H]1CCCN1C(=O)[C@H](CCCNC(=N)N)NC(=O)C1(N)CCCCC1)C(=O)N1CCC[C@H]1C(=O)N[C@@H](CC(C)C)C(=O)N1CCC[C@H]1C(=O)N[C@@H](CCCNC(=N)N)C(=O)N1CCC[C@H]1C(=O)N1CCC[C@H]1C(=O)N[C@@H](CCCNC(=N)N)C(=O)N1CCC[C@H]1C(=O)N[C@H](C(=O)N[C@@H](CCCNC(=N)N)C(N)=O)C(C)C` [compound 45] (H-[Ac6c]RPKKPRPYLPLPRPPRPVR-NH2) here?
Its value is over 128 µg/mL.

And the “DnaK binding in the screening, in words” value ([8]; FP screening, DnaK variant not stated at the place)?
Its value is “best binding”.

And the “MIC, E. coli BW25113” value [9]?
The value was over 128 µg/mL.

Which results are given for `CC(C)C[C@H](NC(=O)[C@H](Cc1ccc(O)cc1)NC(=O)[C@@H]1CCCN1C(=O)[C@H](CCCNC(=N)N)NC(=O)[C@@H]1CCCN1C(=O)[C@H](CCCCN)NC(=O)[C@H](CC(=O)O)NC(=O)[C@@H]1CCCN1C(=O)[C@H](CCCNC(=N)N)NC(=O)C1(N)CCCCC1)C(=O)N1CCC[C@H]1C(=O)N[C@@H](CCCNC(=N)N)C(=O)N1CCC[C@H]1C(=O)N[C@@H](CCCNC(=N)N)C(=O)N1CCC[C@H]1C(=O)N1CCC[C@H]1C(=O)N[C@@H](CCCNC(=N)N)C(=O)N1CCC[C@H]1C(=O)N[C@H](C(=O)N[C@@H](CCCNC(=N)N)C(N)=O)C(C)C` [ARV-1502] (H-[Ac6c]RPDKPRPYLPRPRPPRPVR-NH2)?
MIC, E. coli JW0013 ∆dnaK [6]: 4 to 8 µg/mL; increase of intrinsic ATPase activity of E. coli DnaK [10]: ~250%; stimulation of intrinsic ATPase activity of S. aureus DnaK [11]: 50%
